Literature values, collected in patent US6441198B1, “Podophyllotoxin dimer as DNA topoisomerase II inhibitors, and a process for the preparation therefore” (Council of Scientific and Industrial Research, priority 2000, dated 2002).

Assays:
[1] = system: human DNA topoisomerase II; settings: relative to etoposide
[2] = system: cellular protein-DNA complex formation; settings: relative to etoposide
[3] = system: human tumour cell lines

For `COc1cc(C2c3cc4c(cc3C(Nc3ccc(F)cc3)C3COC(=O)C23)OCO4)cc(OC)c1O` (stereo not drawn) [NPF, 4′-0-demethyl-4β-(4″-fluoroanilino)-4-desoxypodophyllotoxin], the “potency in inhibiting human DNA topoisomerase II compared to etoposide” value [1] is given as 10 fold, the “activity in cellular protein-DNA complex formation compared to etoposide” value [2] is given as 113 times and the “activity in in vitro human tumour cell lines assay” value [3] is given as “very active”.
